Data: patent publication US20100190834A1, “COMPOSITION FOR OPHTALMIC DISEASE ASSOCIATED WITH HYPOXIA OR ISCHEMIA” (R-TECH UENO, LTD., priority 2007, published 2010)
Marks after values point to notes of the source that are not given here.

Tested on: oxygen-induced retinopathy model mouse
Test: Oxygen-induced retinopathy model mouse (model of retinopathy of prematurity), retina flat mount analysis
Assay type: in vivo, C57BL/6N mouse
Settings: for abnormal angiogenesis region (%) / normal blood vessel region (%): average, p < 0.05 vs medium; for avascular region (result in words) / effect on abnormal angiogenesis (result in words): summary of Table 1 and Table 2, compared with medium group
Experimental: A model experiment of retinopathy of prematurity, which is an ophthalmic disease associated with hypoxia or ischemia, was performed based on a quantitative analysis method of oxygen-induced retinopathy model mouse (Experimental Eye Research 84 (2007) 529-536).
The date of birth of mouse was taken as day 0 of age. On day 7 of age, the mouse was placed in a high oxygen concentration breeding device together with the mother mouse and bred under high oxygen conditions (oxygen concentration 75±5%) up to day 12 of age. On day 12 of age, the high oxygen concentration breeding was terminated and the mouse was immediately placed under general breeding with intraperitoneal administration of the medium or test solution 1 twice a day for 7 days. On day 19 of age, retina flat mount was prepared from 4 mice out of the litter.
The mice were anesthetized by intraperitoneal administration of nembutal (1/10-fold diluted, 5 mg/mL) at 0.1 mL/mouse. The thoracic cavity was opened, and 1 mL of fluorescein isothiocyanate-dextran (FITC-dextran 20 mg/mL, FD2000S-1G, manufactured by SIGMA) was perfused from the heart.
After perfusion, the eyeball was immediately isolated, and fixed with 4% para-formaldehyde for 3-4 hr. The eyeball was anatomized to isolate retina, which as developed on a slide glass to prepare a flat mount. The whole retina area, avascular region and abnormal angiogenesis region were encircled with a stylus pen (CTE-640/S1, WACOM FVO) under a fluorescence microscope (ECLIPSE 80i, manufactured by Nikon), and measured using an analysis soft (WinROOF ver. 5.7.0, MITAMI Cor.), based on which the normal blood vessel region and abnormal angiogenesis region were calculated and compared.
normal blood vessel region (%): [{(whole retina area)−(area of avascular region)}/(whole retina area)]×100
abnormal angiogenesis region (%): {(abnormal angiogenesis region)/(whole retina area)}×100
In the same manner as in Experimental Example 1 except that test solution 2 was administered once a day, test solution 2 was intraperitoneally administered to model mouse for 7 days, and the normal blood vessel region and abnormal angiogenesis region thereof were measured.

[1] = test solution 1 (0.01 mg/mL) intraperitoneal twice a day for 7 days from day 12 of age, retina flat mount on day 19, 12 eyes
[2] = test solution 2 (0.01 mg/mL) intraperitoneal once a day for 7 days, 18 eyes

Structure (SMILES) | abnormal angiogenesis region (%) [1] | normal blood vessel region (%) [1] | avascular region (result in words) | effect on abnormal angiogenesis (result in words) | abnormal angiogenesis region (%) [2] | normal blood vessel region (%) [2]
CC(=O)Nc1nc(CCc2ccc(CC(=O)NN)cc2)cs1 [test substance 1, N-{4-[2-(4-hydrazinocarbonylmethylphenyl)ethyl]-1,3-thiazol-2-yl}acetamide] | 7.04* % | 93.44* % | a decrease in the avascular region | a suppressive effect on abnormal angiogenesis |  | 
CC(=O)Nc1nc(CCc2ccc(CCNC(=N)N)cc2)cs1 [test substance 2, N-(4-{2-[4-(2-{[amino(imino)methyl]amino}ethyl)phenyl]ethyl}-1,3-thiazol-2-yl)acetamide] |  |  | a decrease in the avascular region | a suppressive effect on abnormal angiogenesis | 6.79* % | 94.69* %
